Test results as given in US7300770B2, “Detection of microbe contamination on elastomeric articles” (Kimberly-Clark Worldwide, Inc., priority 2004, dated 2007).

What was measured:
aged raw chicken juice = test: Dye spray on aged raw chicken juice pattern and re-colorization with 1 N NaOH
[1] = test system: aged chicken juice known to have a high bacterial count; test: Dye coating with or without TWEEN 80 on ceramic surface exposed to aged chicken juice; conditions: coating with TWEEN 80 surfactant; 80 mg/10 mL acetonitrile
From the text: This solution was then used to coat a ceramic surface and allowed to air dry. […] After drying, a drop of aged chicken juice known to have a high bacterial count was placed on the each coating area. […] Furthermore, the addition of TWEEN® surfactant allowed for easy removal of the dye from the surface.

[2] = Longest wavelength peak absorption of dyes in three solvents (UV-Visible); assay type: physicochemical
From the text: Reichardt's dye was used without further purification. […] Acetone, methanol, and acetonitrile solvents (HPLC grade) were obtained from Sigma-Aldrich Chemical Co., Inc. A Shimadzu UV-1601 UV-Visible Spectrophotometer (Shimadzu Corporation) was used to measure the longest wavelength peak absorption of the dyes in the range of 400 to 800 nanometers, dissolved in three different solvents, contained in quartz curvettes. The following table contains the results of the testing with the solvents on the left side and dyes across the top.

[3] = Color change of dye with bacterial cell-wall compounds on paper towel; conditions: both experimental set-ups; 160 mg/10 mL acetonitrile
[4] = Acid-base reversibility of dye color on towel
E. coli [5] = test: Titration of microorganisms with Reichardt's dye on cellulosic towel; parameters: species or system Escherichia coli; conditions: Gram(-), 10^7 CFU/mL, 100 microliters
S. aureus = test: Color change of Reichardt's dye-treated elastomeric gloves on contact with S. aureus; conditions: natural rubber latex glove; 160 mg dye/10 mL acetonitrile; 10^7 CFU/mL S. aureus
From the text: Specifically, a solution of Reichardt's dye (160 milligrams per 10 milliliters of acetonitrile) was brushed onto a piece of a natural rubber latex glove (commercially available from Kimberly-Clark Corp.). A 100-microliter drop of 10^7 CFU/mL S. aureus was then applied to the surface of the glove and gently spread using a disposable pipette. Thereafter, a finger of a second natural rubber latex glove (commercially available from Kimberly-Clark Corp.) was dipped into a solution of Reichardt's dye (160 milligrams per 10 milliliters of acetonitrile). After drying, the fingers of the second glove were used to spread bacteria from the S. aureus droplet placed onto the piece of latex glove to another area on the latex piece.

[6] = test system: aged chicken juice (bacteria); test: Dye spray on hot plate: aged chicken juice versus canned chicken broth; conditions: 160 mg/10 mL isopropanol spray
From the text: Canned chicken broth was utilized as a control that would contain chicken derived products such as lipids, protein, etc., to check for potential interferences from these naturally occurring materials. Freshly opened Swanson® Chicken Broth was pipette onto a hot plate surface and wiped dry with a SCOTT® towel. Juice from raw chicken that had been stored at room temperature for several days was also pipetted onto the hot plate and wiped dry as a positive control. […] Thus, in the case of chicken, the presence of microbes was clearly responsible for triggering the change in color, and not some other component, such as chicken fat or proteins.

E. coli [7] = test: Dye-coated towel rubbed with dry E. coli colony; conditions: dry colony rubbed onto pre-moistened coated towel
Method: A test using the Reichardt's dye coated paper towel with a “dry” bacteria sample was carried out. Specifically, a dry sample of a colony of E. coli bacteria was lifted off an agar petri dish that contained a series of growing cultures. This dry sample was then rubbed onto a pre-moistened dye coated SCOTT® paper towel. The area where the colony was placed and rubbed turned colorless within 1 to 5 seconds.

[8] = Reichardt's dye and TMB coated towel exposed to dilute bleach; conditions: towel coated with mixture of Reichardt's dye and TMB
[9] = Color change of dye with bacterial cell-wall compounds on paper towel; parameters: species or system E. coli; Streptococcus faecalis; conditions: detoxified LPS, lipoteichoic acid
Polio virus type 1 = conditions: virus diluted serially in media; 50 microliters, 3 minutes
vaginal fluid samples = test: Dye-coated stickers tested with vaginal fluid samples
Method: A sticker of each concentration was tested with normal, BV positive/pH positive, and BV negative/pH positive vaginal fluid samples. […] The three states of color change were easily distinguishable.

[10] = test system: juice from the aged chicken (high bacterial levels); test: Isopropanol dye spray on doorknob marked with aged chicken juice; conditions: 160 mg dye in 10 mL isopropanol, sprayed
From the text: Plastic doorknobs were utilized as a “real world” surface on which to test bacterial contamination. A raw chicken leg was initially aged at room temperature for several days to ensure high bacterial levels (referred to hereinafter as “aged chicken”). Juice from the aged chicken was then used to mark the surface of one of the knobs. The other door knob was left uncontaminated as a control. Both knobs were wiped. […] The isopropanol solution of the dye was sprayed on both surfaces.

G. vaginalis = test: Titration of microorganisms with Reichardt's dye on cellulosic towel; conditions: Gram(-), 10^7 CFU/mL, 100 microliters
A. niger = test: as above; conditions: mold, 10^5
E. coli [11] = test: Cyclodextrin and Reichardt's dye coated towel exposed to E. coli
Method: A SCOTT® paper towel was first coated with hydroxypropyl-beta-cyclodextrin (from Cerestar International, Hammond, Ind., USA) in solution in water (1 gram in 20 milliliters) by dipping and air-drying at ambient temperature. After drying, the coated paper towel was treated with a solution of Reichardt's dye in isopropanol (1 weight percent) and allowed to air-dry. The dried towel was a purple/blue in color. The present inventors believe that the cyclodextrin hindered the crystallization of the dye, thus allowing a more vivid color of the dye to occur on the paper towel. This coated towel was used in a test with gram-negative bacteria (E. coli) and found to turn colorless in less than 5 seconds when an aliquot of 100 microliters of media containing 10,000 CFU per milliliter was applied to the towel. […] The inventors believe that by careful use of a coating (e.g. cyclodextrin), a monolayer coating of the dye may be formed.

[O-]c1c(-c2ccccc2)cc(-[n+]2c(-c3ccccc3)cc(-c3ccccc3)cc2-c2ccccc2)cc1-c1ccccc1 [Reichardt's dye, 4-(2,4,6-triphenylpyridinium-1-yl)-2,6-diphenylphenolate]
Effect of 1 N NaOH on area that changed color (aged raw chicken juice; drop of 1 N NaOH): re-colorization of that small spot
Color change with aged chicken juice pre-mixed with 1 molar NaOH (aged raw chicken juice; equal proportions, 30 seconds): rapid color change
Time to color change [1]: 20 to 30 s
Color in solvent ([2]; Acetone): (Bluish-green)
Longest wavelength peak absorption ([2]; Acetone): 674 nm
Color in solvent ([2]; Acetonitrile): (Blue)
Longest wavelength peak absorption ([2]; Acetonitrile): 623 nm
Color in solvent ([2]; Methanol): (red)
Longest wavelength peak absorption ([2]; Methanol): 509 nm
Color change of dye with muramic acid [3]: near instantaneous color change
Effect of 1 N NaOH on the changed spots ([4]; after acetic acid or pH 2.0 buffer): rapid re-colorization
Color change with acetic acid and pH 2.0 buffer ([4]; dried dye spots on towel): rapid color change
Amount of Dye Required for Persistent Color (E. coli [5]): 80 µL
Color change of glove piece and glove finger (S. aureus): immediately changed
Color change on hot plate surface [6]: only the side containing the aged chicken juice (and thus bacteria) changed color
Time to turn colorless (E. coli [7]): 1 to 5 s
Color response to dilute bleach solution [8]: de-colorizing
Color change of dye with the other cell-wall compounds [9]: eventual color change
Ten-fold dilution down to which stickers changed color (Polio virus type 1): 10^−6
Color change of dye-coated sticker (vaginal fluid samples; BV negative/pH positive sample): only faintly changed the color
Color change of dye-coated sticker (vaginal fluid samples; BV positive/pH positive sample): next sharpest color change
Color change of dye-coated sticker (vaginal fluid samples; normal vaginal fluid): sharpest color change
Color change at contaminated area of doorknob [10]: blue to colorless
Dye added until the color persisted (Polio virus; 100 microliters undiluted virus, 80 mg/10 mL acetonitrile with or without TWEEN 80): approximately 9 drops
Discharge of dye color on virus spot (Polio virus; surfactant- and non-surfactant-containing solutions): rapidly discharged
Amount of Dye Required for Persistent Color (G. vaginalis): 90 µL
Amount of Dye Required for Persistent Color (A. niger): 50 µL
Time to turn colorless (E. coli [11]; 100 microliters of media containing 10,000 CFU per milliliter): less than 5 seconds
Time to color change (E. coli [11]; 500 CFU per milliliter): ≤ 15 s
Bacteria concentration down to which color change occurred (E. coli [11]; hydroxypropyl-beta-cyclodextrin coated towel): 500 CFU per milliliter
